Test results published in patent EP2735303A1, “Hair growth compositions and methods” (Pilosciences, priority 2012, dated 2014).

What was measured:
[1] = test system: human skin explants; assay: Morphology of the hair follicle in human skin explants ex vivo after topical application (histology); type: cell-based; parameters: key to Upper part (quotation of morphological alterations) / Sebaceous gland (quotation of morphological alterations): -: no alteration; +: weak; ++: moderate; +++: significant; ++++: very significant; +++++: strong
Experimental: Anti-HGP antibodies were produced (see example A) or obtained from commercially available sources, and investigated for their ability to inhibit body hair growth ex vivo using human skin explants.
The activity of the antibodies was assessed based on their effect on the morphology and growth of the body hair.
The activity of keratinase A (Sigma) was investigated in parallel. Eflornithin (Calbiochem) was used as a reference.
40 explants of a diameter of about 11 mm (± 1 mm) were obtained by abdominoplasty from 2 men. The explants were placed in survival in the BEM (BIO-EC's Explants Medium) at 37° C in a humid atmosphere enriched with 5% CO2.
The treatment was performed at D0, D1, D4, D6 and D8 by topical application of 5 µl of diluted antibody used at final concentrations of 30 to 100 µg/mL in PBS. Eflornithin was used at a concentration of 100 mg/mL and keratinase at 20 mg/mL. A negative control experiment was performed using PBS only.
At D0, T0 lot explants were removed and cut in half. Half was fixed in buffered formalin and the other half was frozen at -80 ° C. A D8, 2 explants from each batch were taken and treated in the same manner.
After 24 hours of fixation in buffered formalin, the samples were dried and impregnated with paraffin using an automatic dehydration Leica TP 1010 according to the procedure MO-H-149, according to our procedure using a station coating Leica EG 1160. Sections of 5 microns were performed, using a microtome kind Minot, Leica RM 2125 and mounted on silanized glass slides Superfrost ® plus. Microscopic observations were performed by microscopy optical transmission. The shots were taken with a Leica Orthoplan DMLB or with a digital camera Olympus DP72 driven software acquisition and archiving Olympus CellD. The morphology was examined on paraffin sections stained with Masson's trichrome Goldner variant.

[2] = test system: isolated human hair follicles; assay: Hair growth of isolated human hair follicles maintained in vitro (morphometric study); type: cell-based; conditions: versus no application and Minoxidil 2% 10 µmol; application 2h00 at 37°C; length at D0, D4, D6, D8
Experimental: Hair growth is measured using standard morphometric studies on isolated human hair follicles maintained in vitro (Philpott, 1999). Hair follicles are micro-dissected in a human scalp and maintained in a culture medium. Hair follicles in anagen phase are selected for the study. Each tested group is composed of 10-12 hair follicles.

## NCCC[C@](N)(C(=O)O)C(F)F [R1, α-difluoromethylornithine]
[1]; D8, topical application
  Bulb: morphology: comparable to that observed in the untreated group D8
  Lower part of the hair follicle: morphology: very slight cell alterations
  Midsection, sebaceous glands: morphology of inner and outer root sheaths: clear cellular alterations
  Upper part, near the infundibulum: morphology of the epithelial sheaths: sharp cellular alterations
  morphology of the epidermis: slightly altered with a slight spongiosis
[1]; sebaceous gland region of the hair follicle, topical application D0, D1, D4, D6, D8, antibodies 30 to 100 µg/mL in PBS, Eflornithin 100 mg/mL, keratinase 20 mg/mL, D8
  Sebaceous gland (quotation of morphological alterations): ++++
[1]; upper part of the hair follicle near the infundibulum, topical application D0, D1, D4, D6, D8, antibodies 30 to 100 µg/mL in PBS, Eflornithin 100 mg/mL, keratinase 20 mg/mL, D8
  Upper part (quotation of morphological alterations): ++++
[2]
  Hair growth compared to Control Group 0 and to Control Group M: significant hair growth retardation
